Reference: patent US20150265691A1 (priority 2006, published 2015)
Several values for one entry are separate records, joined by “and”; a condition that tells them apart may be missing. Identical values can stand only once.

What was measured:
Assay type in all cases: binding
[1] = system: rabbit anti-anthrax spore IgG
[2] = system: rabbit anti-B. anthracis spore polyclonal IgG antibodies
[3] = system: rabbit anti-B. anthracis spore polyclonal IgG antibodies; remark: listed apart in the source
[4] = system: rabbit anti-anthrax spore IgG; remark: listed apart in the source

Molecule | IgG signal detected by glycan arrays (n = 3) Mean [2] | antibody reactivity detected by glycan arrays [2] | also measured
isomaltopentose [IM5, reference compound] | – | – | inhibition of antibody reactivity with anthrose-tetrasaccharide [1]: no inhibition
COC(=O)CCCCCO[C@@H]1O[C@@H](C)[C@H](O)[C@@H](O[C@@H]2O[C@H](C)[C@@H](NC(=O)CC(C)(C)O)[C@H](O)[C@H]2OC)[C@H]1O [Saccharide 2, 5-(Methoxycarbonyl)pentyl 4-(3-hydroxy-3-methylbutanamido)-2-O-methyl-4,6-dideoxy-β-D-glucopyranosyl-(1→3)-α-L-rhamnopyranoside] | 1.65 | marginally reactive | IC50 [1]: 0.019 nM; relative inhibiting powers [1]: 1.18
COC(=O)CCCCCO[C@@H]1O[C@@H](C)[C@H](O)[C@@H](O)[C@H]1O[C@@H]1O[C@@H](C)[C@H](O)[C@@H](O[C@@H]2O[C@H](C)[C@@H](NC(=O)CC(C)(C)O)[C@H](O)[C@H]2OC)[C@H]1O [Saccharide 3, 5-(Methoxycarbonyl)pentyl 4-(3-hydroxy-3-methylbutanamido)-2-O-methyl-4,6-dideoxy-β-D-glucopyranosyl-(1→3)-α-L-rhamnopyranosyl-(1→2)-α-L-rhamnopyranoside] | 2.73 | significant amounts of IgG antibodies | IC50 [1]: 0.016 nM; relative inhibiting powers [1]: 1.00
Nigerose [reference compound] | – | – | inhibition of antibody reactivity with anthrose-tetrasaccharide [1]: no inhibition
CO[C@H]1O[C@H](CO)[C@@H](O)[C@H](O[C@H]2O[C@H](CO)[C@H](O)[C@H](O)[C@H]2O[C@@H]2O[C@@H](C)[C@H](O)[C@@H](O[C@@H]3O[C@@H](C)[C@H](O)[C@@H](O)[C@H]3O)[C@H]2O)[C@H]1NC(C)=O [Saccharide 26, Methyl <-L-rhamnopyranosyl-(1→3)-<-L-rhamnopyranosyl-(1→2)-<-D-galactopyranosyl-(1→3)-2-acetamido-2-deoxy-<-D-glucopyranoside] | 1.01 | – | –
Methyl 2-O-methyl-4,6-dideoxy-4-(3-deoxy-L-glycero-tetronamido)-<-D-mannopyranosyl-(1→2)-tris[4,6-dideoxy-4-(3-deoxy-L-glycero-tetronamido)-<-D-mannopyranosyl-(1→2)]-4,6-dideoxy-4-(3-deoxy-L-glycero-tetronamido)-<-D-mannopyranoside [Saccharide 29] | 1.09 | – | –
COC(=O)CCCCCO[C@@H]1O[C@@H](C)[C@H](O)[C@@H](O)[C@H]1O[C@@H]1O[C@@H](C)[C@H](O)[C@@H](O[C@@H]2O[C@@H](C)[C@H](O)[C@@H](O)[C@H]2O)[C@H]1O [Saccharide 17, 5-(Methoxycarbonyl)pentyl α-L-rhamnopyranosyl-(1→3)-α-L-rhamnopyranosyl-(1→2)-α-L-rhamnopyranoside] | 0.98 | – | IgG reactivities (Ratio of Sg./bg.) Mean [3]: 1.04 and 0.97 and 1.00 and 0.99
COC(=O)CCCCCO[C@H]1O[C@@H](C)[C@H](O)[C@@H](O)[C@H]1O[C@@H]1O[C@@H](C)[C@H](O)[C@@H](O[C@@H]2O[C@@H](C)[C@H](O)[C@@H](O[C@@H]3O[C@H](C)[C@@H](NC(=O)CC(C)(C)O)[C@H](O)[C@H]3OC)[C@H]2O)[C@H]1O [Saccharide 4, 5-(Methoxycarbonyl)pentyl 4-(3-hydroxy-3-methylbutanamido)-2-O-methyl-4,6-dideoxy-β-D-glucopyranosyl-(1→3)-α-L-rhamnopyranoyl-(1→3)-α-L-rhamnopyranosyl-(1→2)-β-L-rhamnopyranoside] | 5.16 | significant amounts of IgG antibodies | I^50 [4]: 0.23 nmol
CO[C@H]1O[C@H](CO)[C@H](O)[C@H](O)[C@H]1O[C@@H]1O[C@@H](C)[C@H](O)[C@@H](O)[C@H]1O [Saccharide 21, Methyl <-L-rhamnopyranosyl-(1→2)-<-D-galactopyranoside, reference compound] | 1.08 | – | –
COC(=O)CCCCCO[C@@H]1O[C@@H](C)[C@H](O)[C@@H](O)[C@H]1O[C@@H]1O[C@@H](C)[C@H](O)[C@@H](O[C@@H]2O[C@@H](C)[C@H](O)[C@@H](O[C@@H]3O[C@H](C)[C@@H](NC(=O)CC(C)(C)O)[C@H](O)[C@H]3OC)[C@H]2O)[C@H]1O [Saccharide 5, 5-(Methoxycarbonyl)pentyl 4-(3-hydroxy-3-methylbutanamido)-2-O-methyl-4,6-dideoxy-β-D-glucopyranosyl-(1→3)-α-L-rhamnopyranoyl-(1→3)-α-L-rhamnopyranosyl-(1→2)-α-L-rhamnopyranoside] | 5.19 | significant amounts of IgG antibodies | I^50 [4]: 0.18 nmol
CO[C@H]1O[C@H](CO)[C@H](O)[C@H](O)[C@H]1O[C@@H]1O[C@@H](C)[C@H](O)[C@@H](O[C@@H]2O[C@@H](C)[C@H](O)[C@@H](O[C@H]3O[C@H](CO)[C@@H](O)[C@H](O)[C@H]3NC(C)=O)[C@H]2O)[C@H]1O [Saccharide 22, Methyl 2-acetamido-2-deoxy-<-D-glucopyranosyl-(1→3)-<-L-rhamnopyranosyl-(1→3)-<-L-rhamnopyranosyl-(1→2)-<-D-galactopyranoside, reference compound] | 0.95 | – | –
COC(=O)CCCCCO[C@@H]1O[C@H](C)[C@@H](NC(=O)CC(C)(C)O)[C@H](O)[C@H]1OC [Saccharide 1, 5-(Methoxycarbonyl)pentyl 4-(3-hydroxy-3-methylbutanamido)-2-O-methyl-4,6-dideoxy-β-D-glucopyranoside] | 1.44 | marginally reactive | blocking of antibody reactivity with anthrose-containing tri- and tetra-saccharides [3]: blocked the antibody reactivity; inhibition of other antibody reactivities: binding to isolichenin and Pn 23 polysaccharide [3]: no significant inhibition; IC50 [1]: 0.688 nM; relative inhibiting powers [1]: 43.3; I^50 [4]: 7.3 nmol
C[C@@H](O)[C@H](O)[C@H](O)[C@@H](O)C=O [Saccharide 7, D-Fucose] | 1.88 | – | –
O=C[C@@H](O)[C@@H](O)[C@H](O)[C@H](O)CO [Saccharide 10, D-Mannose] | 1.03 | – | –
COC(=O)CCCCCO[C@@H]1O[C@@H](C)[C@H](O)[C@@H](O)[C@H]1O [Saccharide 14, 5-(Methoxycarbonyl)pentyl α-L-rhamnopyranoside] | 0.97 | – | –
